The text below walks through data of US9828393B2, “Silylalkyloxyaryl compounds and methods for treating cancer” (THE REGENTS OF THE UNIVERSITY OF COLORADO, a body corporate, priority 2013, dated 2017).

Test [1] concerns OVCAR-5. As to the kind of experiment: NCI-60 cell line screen (SRB), OVCAR-5. The class given is cell-based, human. Here is the method: (§1) Drug sensitivity data are provided as GI50s (concentrations required to inhibit growth by 50%). The first row of the text file identifies cell lines, separated by tabs. Subsequent rows contain compound number, compound name, and GI50 for each cell line, each separated by a tab. […] For a typical screening experiment, cells are inoculated into 96 well microtiter plates in 100 μL at plating densities ranging from 5,000 to 40,000 cells/well depending on the doubling time of individual cell lines. After cell inoculation, the microtiter plates are incubated at 37° C., 5% CO2, 95% air and 100% relative humidity for 24 h prior to addition of experimental drugs. After 24 h, two plates of each cell line are fixed in situ with TCA, to represent a measurement of the cell population for each cell line at the time of drug addition (Tz). Experimental drugs are solubilized in dimethyl sulfoxide at 400-fold the desired final maximum test concentration and stored frozen prior to use. At the time of drug addition, an aliquot of frozen concentrate is thawed and diluted to twice the desired final maximum test concentration with complete medium containing 50 μg/ml gentamicin. Additional four, 10-fold or one-half log serial dilutions are made to provide a total of five drug concentrations plus control. Aliquots of 100 μl of these different drug dilutions are added to the appropriate microtiter wells already containing 100 μl of medium, resulting in the required final drug concentrations. Following drug addition, the plates are incubated for an additional 48 h at 37° C., 5% CO2, 95% air, and 100% relative humidity. For adherent cells, the assay is terminated by the addition of cold TCA. Cells are fixed in situ by the gentle addition of 50 μl of cold 50% (w/v) TCA (final concentration, 10% TCA) and incubated for 60 minutes at 4° C. The supernatant is discarded, and the plates are washed five times with tap water and air dried. Sulforhodamine B (SRB) solution (100 μl) at 0.4% (w/v) in 1% acetic acid is added to each well, and plates are incubated for 10 minutes at room temperature. After staining, unbound dye is removed by washing five times with 1% acetic acid and the plates are air dried. Bound stain is subsequently solubilized with 10 mM trizma base, and the absorbance is read on an automated plate reader at a wavelength of 515 nm. For suspension cells, the methodology is the same except that the assay is terminated by fixing settled cells at the bottom of the wells by gently adding 50 μl of 80% TCA (final concentration, 16% TCA). Using the seven absorbance measurements [time zero, (Tz), control growth, (C), and test growth in the presence of drug at the five concentration levels (Ti)], the percentage growth is calculated at each of the drug concentrations levels. […]

Test [2] concerns SN12C. In words: NCI-60 cell line screen (SRB), SN12C. The class given is cell-based, human. The procedure:
as §1

The subject of test [3] is SF-268. In words: NCI-60 cell line screen (SRB), SF-268. The class given is cell-based, human. Here is the method:
as §1

Test [4] has as its system TK-10. In words: NCI-60 cell line screen (SRB), TK-10. The class given is cell-based, human. The procedure:
as §1

For test [5], the system named is Renal Cancer cell lines. In words: NCI-60 cell line screen, Renal Cancer panel average. The class given is cell-based, human. Conditions: read-out: GI50 Average. The procedure:
as §1

Test [6] has as its system PC-3. As to the kind of experiment: NCI-60 cell line screen (SRB), PC-3. The class given is cell-based, human. Here is the method:
as §1

Test [7] has as its system T-47D. In words: NCI-60 cell line screen (SRB), T-47D. The class given is cell-based, human. Here is the method: as §1
For test [8], the system named is NCI-H460. In words: NCI-60 cell line screen (SRB), NCI-H460. The class given is cell-based, human. Here is the method:
as §1

Test [9] has as its system MDA-MB-468. In words: NCI-60 cell line screen (SRB), MDA-MB-468. The class given is cell-based, human. The procedure: as §1
Test [10] has as its system OVCAR-3. As to the kind of experiment: NCI-60 cell line screen (SRB), OVCAR-3. The class given is cell-based, human. The procedure:
as §1

Test [11] concerns NCI-H322M. As to the kind of experiment: NCI-60 cell line screen (SRB), NCI-H322M. The class given is cell-based, human. Here is the method: as §1
Test [12] relates to HL-60(TB). As to the kind of experiment: NCI-60 cell line screen (SRB), HL-60(TB). The class given is cell-based, human. The procedure:
as §1

Test [13] deals with Leukemia cell lines. As to the kind of experiment: NCI-60 cell line screen, Leukemia panel average. Conditions: read-out: GI50 Average. The class given is cell-based, human. The procedure: as §1
In test [14] the test system is Non-Small Cell Lung Cancer cell lines. In words: NCI-60 cell line screen, Non-Small Cell Lung Cancer panel average. The class given is cell-based, human. Conditions: read-out: GI50 Average. Here is the method:
as §1

Test [15] deals with ACHN. In words: NCI-60 cell line screen (SRB), ACHN. The class given is cell-based, human. Here is the method: as §1
Test [16] has as its system DU145. In words: NCI-60 cell line screen (SRB), DU145. The class given is cell-based, human. Here is the method: as §1
Test [17] deals with BT-549. In words: NCI-60 cell line screen (SRB), BT-549. The class given is cell-based, human. The procedure: as §1
Test [18] concerns IGROV1. In words: NCI-60 cell line screen (SRB), IGROV1. The class given is cell-based, human. Here is the method:
as §1

The test system of test [19] is SNB-75. In words: NCI-60 cell line screen (SRB), SNB-75. The class given is cell-based. Conditions: Homo sapiens, SNB-75, 48 h. Here is the method:
as §1, with “temperature.” for “temperature. After staining, unbound dye is removed by washing five times with 1% acetic acid and the plates are air dried. Bound stain is subsequently solubilized with 10 mM trizma base, and the absorbance is read on an automated plate reader at a wavelength of 515 nm. For suspension cells, the methodology is the same except that the assay is terminated by fixing settled cells at the bottom of the wells by gently adding 50 μl of 80% TCA (final concentration, 16% TCA). Using the seven absorbance measurements [time zero, (Tz), control growth, (C), and test growth in the presence of drug at the five concentration levels (Ti)], the percentage growth is calculated at each of the drug concentrations levels.”

Test [20] deals with HT29. As to the kind of experiment: NCI-60 cell line screen (SRB), HT29. The class given is cell-based, human. Here is the method:
as §1

The subject of test [21] is UO-31. As to the kind of experiment: NCI-60 cell line screen (SRB), UO-31. The class given is cell-based, human. Here is the method:
as §1

The test system of test [22] is SK-MEL-5. In words: NCI-60 cell line screen (SRB), SK-MEL-5. The class given is cell-based, human. The procedure:
as §1

Test [23] relates to MCF-7. As to the kind of experiment: NCI-60 cell line screen (SRB), MCF-7. The class given is cell-based, human. Here is the method:
as §1

In test [24] the test system is Ovarian Cancer cell lines. As to the kind of experiment: NCI-60 cell line screen, Ovarian Cancer panel average. The class given is cell-based, human. Conditions: read-out: GI50 Average. The procedure:
as §1

[25] abbreviates: Renal Cancer, 48 h drug incubation, read-out: GI50.

Structures are written as SMILES. Read-outs that look alike come from different tables or passages of the source.

For the compound `CC1(C)CC(NC(=O)[C@H](Cc2ccc(OCc3c(Cl)cccc3Cl)cc2)NC(=O)c2ccc(OCCC[Si](C)(C)C)cc2)CC(C)(C)N1` [GH1501, N^α-{4-[3-(trimethylsilyl)propoxy]-benzoyl}-N-(2,2,6,6-tetramethylpiperidin-4-yl)-[O-(2,6-dichlorobenzyl)-L-tyrosinamide]], the concentration for 50% growth inhibition (GI50) stood at 1680 nM in [1] (Homo sapiens, OVCAR-5, 48 h); 564 nM in [2] (Homo sapiens, 48 h); 903 nM in test [3] (Homo sapiens, SF-268, 48 h); 1850 nM in test [4] (Homo sapiens, TK-10, 48 h); 1280 nM in test [5] (Homo sapiens); 1320 nM in test [6] (Homo sapiens, PC-3, 48 h). The concentration for 50% growth inhibition (GI50) in test [7] (Homo sapiens, T47D, 48 h) came to 1900 nM; in test [8] (Homo sapiens, NCI-H460, 48 h) it was 253 nM; in test [9] (Homo sapiens, MDA-MB-468, 48 h), 1700 nM; in test [10] (Homo sapiens, OVCAR-3, 48 h) it was 1250 nM; in test [11] (Homo sapiens, 48 h), 1740 nM; in [12] (Homo sapiens, HL-60, 48 h), 813 nM. Besides, the GI50 in [13] (Homo sapiens) was found to be 802 nM; in test [14] (Homo sapiens), 1330 nM; in test [15] (Homo sapiens, 48 h), 1320 nM; in [16] (Homo sapiens, DU-145, 48 h), 347 nM; in test [17] (Homo sapiens, BT-549, 48 h) it was 2010 nM; in test [18] (Homo sapiens, IGROV-1, 48 h) it was 1200 nM. Also, the concentration for 50% growth inhibition (GI50) in test [19] is 1340 nM; in test [20] (Homo sapiens, HT-29, 48 h), 263 nM; in [21] (Homo sapiens, UO-31, 48 h), 1520 nM; in test [22] (Homo sapiens, SK-MEL-5, 48 h), 1720 nM; in test [23] (Homo sapiens, MCF7, 48 h) it was 335 nM; in [24] (Homo sapiens) it was 1370 nM.

In the case of `CCOP(=O)(OCC)C(NC(=O)[C@H](Cc1ccc(-c2ccccc2)cc1)NC(=O)c1ccc(OCCC[Si](C)(C)C)cc1)P(=O)(OCC)OCC` [GH1505, N^α-{4-[3-(trimethylsilyl)propoxy]-benzoyl}-N-[bis(dietoxyphosphoryl)methyl]-(4-phenyl-L-phenylalaninamide)], the GI50 in [1] (Ovarian Cancer, OVCAR-5, 48 h drug incubation, read-out: GI50) is 1710 nM; in test [2] (setting [25]) it was 1710 nM; in test [3] (CNS Cancer, SF-268, 48 h drug incubation, read-out: GI50), 2070 nM; in test [4] (Renal Cancer, TK-10, 48 h drug incubation, read-out: GI50) it was 2500 nM; in test [5] (average over Renal Cancer panel), 2550 nM; in test [6] (Prostate Cancer, PC-3, 48 h drug incubation, read-out: GI50), 2100 nM. Further, the GI50 was 3100 nM in test [7] (Breast Cancer, T-47D, 48 h drug incubation, read-out: GI50); 1970 nM in test [8] (Non-Small Cell Lung Cancer, NCI-H460, 48 h drug incubation, read-out: GI50); 1720 nM in [9] (Breast Cancer, MDA-MB-468, 48 h drug incubation, read-out: GI50); 1870 nM in test [10] (Ovarian Cancer, OVCAR-3, 48 h drug incubation, read-out: GI50); 5110 nM in [11] (Non-Small Cell Lung Cancer, 48 h drug incubation, read-out: GI50); 2940 nM in [12] (Leukemia, HL-60(TB), 48 h drug incubation, read-out: GI50). For the same compound, the GI50 was 2800 nM in test [13] (average over Leukemia panel); 2620 nM in [14] (average over Non-Small Cell Lung Cancer panel); 2270 nM in test [15] (setting [25]); 1930 nM in test [16] (Prostate Cancer, DU145, 48 h drug incubation, read-out: GI50); 2090 nM in test [17] (Breast Cancer, BT-549, 48 h drug incubation, read-out: GI50); 3220 nM in [18] (Ovarian Cancer, IGROV1, 48 h drug incubation, read-out: GI50). Further, the concentration for 50% growth inhibition (GI50) was determined as 2020 nM in test [20] (Colon Cancer, HT29, 48 h drug incubation, read-out: GI50); 2770 nM in [21] (Renal Cancer, UO-31, 48 h drug incubation, read-out: GI50); 1580 nM in test [22] (Melanoma, SK-MEL-5, 48 h drug incubation, read-out: GI50); 1880 nM in test [23] (Breast Cancer, MCF-7, 48 h drug incubation, read-out: GI50); 2600 nM in test [24] (average over Ovarian Cancer panel).

As usually defined, the GI50 is the concentration giving 50% growth inhibition.
